Here are results for 1 compound from patent publication US10016382B2, “Method for decreasing skeletal muscle damage and/or oxidative stress in mammals” (LONZA INC., priority 2014, dated 2018).

The subject of this assay is Labrador Retrievers. The assay is described as follows: Time of final 15 mile endurance run, Example 1 (90 day study). It counts as in vivo, dog. Particulars: Ex.1, 250 mg/d; for Final run time: 15 mile run at end of 90 day study, mean ± SEM. The procedure: Forty Labrador Retrievers were divided into two equal groups of twenty (11 males, 9 females) based on gender, body weight (“BW”), genetics, and lean mass and fed a low L-carnitine basal diet for a 90 day feeding period. The experimental dogs were fed the low L-carnitine basal for 10 days prior to the start of the study. Twenty of the Labs received 250 mg/day of L-carnitine (batch D22312) and 3.75 g of sugar and twenty of the Labs received 4 g/d of sugar. The dogs were scanned with a GE Prodigy DEXA system immediately prior to beginning of the study and the determined lean mass was utilized as a key component for helping assort the dogs equally between the control and L-carnitine group. A serum sample was obtained from each dog to determine a baseline value for blood biomarkers that were used to evaluate muscle damage and antioxidant status. The L-carnitine and control performance dogs were put through a weekly running program consisting of running sprint type shorter runs of higher intensity twice weekly (1200 yds/session increasing to 2400 yds/session over 10 wk period) and running endurance longer runs one time per wk (increasing from 5 miles/session to 10 miles per session over a 10 wk period). Each performance dog also wore the Actical activity monitor during the last endurance run. The dogs were put through a 15 mile run that included mud, water, tall grass, and swimming. The dogs were timed when they completed the course. The dogs were encouraged by kennel staff that rode along in a 4 wheel all terrain type vehicle during all of the endurance runs. […] Immediately following the 15 mile endurance run, each dog was placed in a kennel and evaluated for recovery time for body temperature (every 15 minutes for 2 hr) and heart rate (every 2 minutes for 14 minutes). Twenty four hours after test dogs ran the last 15 endurance run, post-run serum samples were taken to evaluate biomarkers for muscle damage and antioxidant status. Each test dog was also scanned with the GE Prodigy DEXA to determine body composition change that occurred during the course of the 13 wk study. Experimental Design: Forty Labrador Retrievers (labs) ranging in age from 1 to 3.5 years were incorporated into a two dietary treatment study. The two dietary treatments were based on feeding the test dogs the same low L-carnitine diet but adding 250 mg per day of L-carnitine to the L-carnitine group. Each of the L-carnitine dogs received the daily 250 mg of L-carnitine mixed with an additional 3.75 g sugar. The control dogs received 4 g of sugar each day. Twenty labs of equal gender, age, excitement level, frame size, body weight and genetic background were utilized for each of the two treatments. The labs utilized for the nutrition study were from a minimum of 6 different bitches. The lean body mass of the 40 test dogs was determined by scanning with the DEXA and the final key component utilized to assure equal groups. Prior to the start of the study, the labs were acclimated to the experimental diets for a minimum of 10 days. The labs were weighed at the beginning of the 90 day study and weighed every two weeks throughout the study. Feed consumption was determined daily by weighing feed provided and feed refusals. The quantity of food provided each dog on a daily basis was adjusted based on maintaining a minimum initial starting body weight throughout the study. […]

Several values for one entry are separate records, joined by “and”; a condition that tells them apart may be missing. Equal values may be shown once.

For `C[N+](C)(C)C[C@H](O)CC(=O)[O-]` [L-carnitine], the Final run time (both sexes) was 95.84 min and 95.84 ± 1.417^A n = 19 min; the Final run time (females) is 98.50 ± 3.179 n = 8 min; the Final run time (males) was 93.91 ± 0.4564^A n = 11 min. For the same compound, the “15-mile timed run, minutes faster than control” value was 6.56 min (both sexes vs control dogs) and 8.69 min (males vs control males).
